According to patent publication US9365597B2, “Mitochondria-targeted inhibitors of cytochrome c peroxidase for protection from apoptosis” (Brock University, priority 2011, dated 2016):

Legend:
[1] = test system: mouse lung endothelial cells; experiment: Rotenone-induced apoptosis in mouse lung endothelial cells (PS externalization); assay type: cell-based; settings: 2 μM rotenone, TPP-IOA 2.5, 5 μM, 48 h
Experimental: Mouse embryonic cells (courtesy of Dr X. Wang, University of Texas, Dallas) were cultured in Dulbecco's Modified Eagle Medium (DMEM) supplemented with 15% fetal bovine serum (FBS), 25 mM Hepes, 50 mg per liter uridine, 110 mg per liter pyruvate, 2 mM glutamine, 1× nonessential amino acids, 50 μM β-mercaptoethanol, 0.5×10^6 Upper liter mouse leukaemia inhibitory factor, 100 Upper liter penicillin, and 100 mg per liter streptomycin in a humidified atmosphere of 5% CO2, 95% air at 37° C. Mouse lung endothelial cells were obtained as previously described^29. Briefly, lungs were flushed with Hank's balanced salt solution (HBSS) containing 10 U ml^−1 heparin, then homogenized and digested in type I collagenase using a gentle MACs dissociator (Miltenyi). […] At approximately passage 2, cells were incubated with fluorescently labelled diacetylated low-density lipoprotein (LDL) followed by fluorescence-activated cell sorting (FACS) for further purification. The enriched PECAM and diacetylated LDL population was sub-cultured on a collagen/gelatin matrix in 2% O2, 5% CO2, 93% nitrogen in a Coy Hypoxic Glove Box/Chamber in Opti-MEM (Gibco), 10% FBS, 2 mM glutamine, 0.2% retinal-derived growth factor (Vec Technologies), 10 U ml^−1 heparin, 0.1 mM non-essential amino acid supplement (Gibco) and 55 μM β-mercaptoethanol (Counted as passage 3). […]

[2] = test system: SH-SY5Y cells; experiment: Oxygen-glucose deprivation (OGD) of SH-SY5Y cells, viability by WST-1 assay; assay type: cell-based, human; settings: for fold change in viability compared to control cells: 24 hours of recovery after 8 hour OGD, mean±SEM
Experimental: SH-SY5Y cells were harvested from 100 mm diameter culture plates once 70-80% confluence was reached, and were then seeded on 96-well plates at a density of 3.0×10^4 cells per well in normal growth media. The cells were then incubated overnight (approximately 16 hours) under normal growth conditions to allow for attachment to plates. During this time, DMEM (supplemented with 25 mM HEPES, 4 mM L-glutamine, and 584 mg/L […]) with no glucose or serum to be used for OGD was incubated on a culture plate in the 3% oxygen, 5% carbon dioxide, 37° C. incubator to reduce the oxygen levels within the media. In the following morning, this plate of media was placed inside of a custom-built anoxic chamber that was continuously pumped with 95% nitrogen-5% carbon dioxide gas mixture from Praxair Canada (St. Catharines, ON, Canada) to further reduce/eliminate the amount of oxygen present in the media. 0.2% oxygen level within the chamber was reached within approximately 10 minutes, and the plate of media was incubated for 30 minutes under these conditions. After this period, the growth media on the 96-well plates of SH-SY5Y cells was removed, and carefully replaced with the de-oxygenated DMEM containing no glucose or serum. The plates of cells were then incubated in the anoxia chamber at 0.2% oxygen for 8 hours, continuously pumped with the 95% nitrogen-5% carbon dioxide gas mixture. An oxygen sensor was kept inside of the chamber, and the 0.2% oxygen level was monitored and maintained by a Roxy-1 universal regulator/controller (Sable Systems Int., Las Vegas, Nev., USA). Throughout the duration of the media de-oxygenation and OGD, the anoxic chamber was kept inside of a 37° C. […]
After the 8 hour period of OGD, the glucose/serum-free DMEM was carefully removed from the wells, and replaced with normal growth media containing TPP-IOA. The cells were incubated at their normal growth conditions, and viability was assessed after 24 and 48 hours of recovery with the use of the WST-1 cell proliferation assay.
For measurements, premixed WST-1 cell proliferation reagent was added to the wells of cells (ratio of 1:10 with growth media) cultured on 96-well flat bottomed plates. […] The plate was then shaken thoroughly for 1 minute on a plate shaker, and then absorbance at 450 nm, with a reference wavelength of 650 nm, was measured using a microplate reader (BioTek, Winooski, Vt., USA).
For data analysis, the background control and reference wavelength absorbance readings were subtracted from the 450 nm reading for each sample. The average absorbance reading for the 0 μM TPP-IOA treatment was then set equal to 1, and all sample readings were divided by the mean absorbance of the 0 μM TPP-IOA treatment to obtain a measure of fold change in viability compared to the control.

CCCCCCC(C/C=C\CCCCCCCC(=O)OCCC[P+](c1ccccc1)(c1ccccc1)c1ccccc1)n1ccnc1.[Br-] (centres unmarked) [TPP-IOA]
inhibition of rotenone-induced apoptosis [1]: effectively inhibited apoptosis
fold change in viability compared to control cells ([2]; 2.5 μM, p=0.017): 1.192±0.058 fold
fold change in viability compared to control cells ([2]; 5 μM, p=0.0094): 1.356±0.074 fold
fold change in viability compared to control cells ([2]; 10 μM, non-significant p=0.0955): 1.179±0.038 fold
viability after 48 hours of incubation ([2]; 48 hours of recovery after 8 hour OGD): no significant improvements in viability
